pIC50: −log10 of the molar value. “Also recorded” adds a separate entry of the source. Where two headings read alike, the source gives them in different places.
Assays:
[1] = tested on: nonswarming P. aeruginosa mutant rhlA; experiment: Swarming motility of nonswarming rhlA mutant on soft agar (reactivation / agonist assay); format: cell-based, Pseudomonas aeruginosa; conditions: for Swarming motility of rhlA mutant: 85 μM in soft agar (0.5%), 24 h
Outline: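 rhlA transposon mutant of PAO1 (3 μl, OD600 0.4–0.6) inoculated on M8 soft agar (0.2% glucose, 0.5% casamino acids, 1 mM MgSO4, 0.5% agar) with test compound to find swarming agonists. Incubated 12 h at 37 °C plus 12 h at room temperature; swarm area measured by weighing paper cut-outs of imaged swarms.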

PAO1-GFP = experiment: microbe, parasite or virus in culture; format: cell-based, Pseudomonas aeruginosa
Method: (§1) A crystal violet (CV) assay was used to measure the amount of PAO1 biofilm formed after 24 h of bacterial inoculation. The fluorescence of green fluorescent proteins (GFP) expressed by PAO1-GFP was measured to directly quantify bacterial adhesion on polystyrene black 96 well plates with and without maltose derivatives after 2 h of bacterial inoculation. To evaluate the potential of maltose derivatives as both anti-biofilm and anti-adhesion agents, they were compared to a brominated furanone (BF8) known to inhibit biofilm formation, and two generic surfactants, sodium dodecyl sulfate (SDS) and tetra (ethylene glycol) monododecyl ether (C12EG4OH). […] P. aeruginosa strain PAO1-EGFP that constitutively producing green fluorescent protein was allowed to form biofilm on sterile steel coupons.
Overnight culture of PAO1-GFP was subcultured to an OD600 of 0.01 into the 95:5 M9+:Lb medium. Subculture was allowed to reach the OD600 of 0.1 in a rotary shaker at 250 rpm and 37° C. 200 μL of the subculture was then transferred to the wells of black microtiter plate with and without (control) maltose derivatives. This black 96 well plate was then incubated in a shaker at 37° C. for 2 h. After 2 h, bacterial culture from the plate was discarded and each well was washed once with saline water (0.85 w/v % aqueous NaCl solution). Fresh 95:5 M9+:Lb medium was added to the black 96 well plate and fluorescence of the surface adhered bacteria was measured by Synergy 2 multi-mode microplate reader with Gen5 data analysis software at an excitation wavelength of 500 nm and an emission wavelength of 540 nm. Background signal from 95:5 M9+:Lb medium was eliminated from all the samples.

PAO1 biofilm [2] = experiment: Crystal violet dye based biofilm inhibition assay, maltose derivatives (Example 1); format: cell-based, Pseudomonas aeruginosa; conditions: for Inhibition of PAO1 biofilm: 110 μM, 24 h, CV assay; for pIC50: CV dye based assay
Method: as §1
Inhibitory effect of all the maltose hydrocarbons on P. aeruginosa biofilm formation was determined by crystal violet dye based biofilm inhibition assays. Overnight culture of wild type P. aeruginosa (PAO1) was sub cultured to an OD600 of 0.01 into the 95:5 M9+:Lb medium. 200 μL of the sub culture was aliquoted into the wells of 96 well polystyrene microtiter plate when it reached the OD600 of 0.1. Predetermined concentrations of the test compounds were then added to the respective wells containing sub culture. Sample plates were wrapped in GLAD Press n′ Seal® followed by incubation under stationary conditions for 24 h at 37° C. After incubation the media was discarded and the plates were washed with water and dried for 1 h at 37° C. The sample plates were stained with 200 μL of 0.1% aqueous solution of crystal violet (CV) and followed by incubation at ambient temperature for 20 min. The CV stain was then discarded and the plates were washed with water. The remaining biofilm adhered stain was re-solubilized with 200 μL of 30% acetic acid. After the stain was dissolved (15 minutes), 100 μL of the solubilized CV was transferred from each well into the corresponding wells of a new polystyrene microtiter dish. Biofilm inhibition was quantified by measuring the OD600 of each well in which a negative control lane wherein no biofilm was formed served as a background and was subtracted out. The percent inhibition was calculated by the comparison of the OD600 for biofilm grown in the absence of compound (control) versus biofilm grown in the presence of compound under identical conditions.
(§2) Predetermined amounts maltose derivatives stock solution was added to the 200 μL bacterial culture in 96 well plate so that the final concentration of the agent reaches the desired values of 1, 5, 10, 20, 40, 85, 113, 140 μM. Biofilm inhibition and dispersion assay was carried as described previously.

24 h old PAO1 biofilm = experiment: Crystal violet biofilm dispersion assay, maltose derivatives (Example 1); format: cell-based, Pseudomonas aeruginosa; conditions: for DC50: 24 h old biofilm, read-out: Biofilm dispersion DC50 (half-maximal dispersion)
Method: Chemical dispersion of already formed biofilm is often more relevant to medical application, and more challenging than biofilm inhibition assays, for which the agents are introduced at the onset of an experiment. We screened the ability of maltose derivatives at 110 μM to disperse 24 h old biofilm.
PAO1 was allowed to grow for 24 h at 37° C. After 24 h, bacterial culture was pipetted out and replaced with 200 μL of 110 μM maltose hydrocarbons and sterile water (control). After 1 h treatment with maltose hydrocarbons, biofilm was fixed and quantified using crystal violet dye as described above. The amount of dispersed biofilm was determined via comparison of the amount of biofilm at 24 h in the presence of maltose hydrocarbons versus the amount of biofilm in the “no compound” positive control at 24 h (wells with water treatment).
as §2

[3] = tested on: Pseudomonas aeruginosa strain PAO1-BAA-47; experiment: Mouse P. aeruginosa pneumonia model; format: in vivo; conditions: SP-A/D KO mice
PAO1 biofilm [4] = experiment: Crystal violet based static biofilm inhibition assay, DSHs in LB media (Examples 2 and 4); format: cell-based, Pseudomonas aeruginosa
Outline: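 PAO1 subculture (OD600 ~0.1) was grown statically in LB at 37° C for 24 h with or without DSHs (screened at 160 μM). Surface-attached biofilm was then stained with 0.1% crystal violet, solubilised in 30% AcOH and read at 600 nm. Values are the mean of 4 wells.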

wild type PAO1 = experiment: Swarming motility of wild type PAO1 on soft agar (antagonist assay); format: cell-based, Pseudomonas aeruginosa
Outline: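 Wild-type PAO1 culture (OD600 ~0.4–0.6, 3 μl) spotted on M8 swarm agar with 0.2% glucose, 0.5% casamino acids, 1 mM MgSO4 and 0.5% agar. Plates incubated 12 h at 37 °C then 12 h at room temperature; swarm area measured by cutting and weighing printed plate images.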

PAO1-EGFP = experiment: Fluorescence adhesion assay on polystyrene, DSHs (Examples 2 and 4); format: cell-based, Pseudomonas aeruginosa; conditions: 160 μM
Method: The ability of DSHs was tested to inhibit Pseudomonas aeruginosa adhesion, biofilm and to disperse pre-formed biofilm. To quantify the amount of PAO1/EGFP attached on the surface of micro titer plates with or without the synthesized DSHs, fluorescence emitted by green fluorescent proteins (GFP) was quantified (see supporting info for details). Crystal violet (CV) based static biofilm assay (see supporting info) was used to screen the anti-biofilm potencies of all synthesized agents. Both surface attached (SA) (FIG. 17) and total (SA+air-liquid interface) biofilm of P. aeruginosa was quantified. […] CV assays were also used to quantify the amount of P. aeruginosa biofilm remaining after dispersion experiments (FIG. 19). Initially, all agents were screen for anti-biofilm activities (both inhibition and dispersion) at 160 μM. […]
The effect that DSHs have on the adhesion of PAO1-EGFP on polystyrene surface (microtiter plate) was also examined. […] After 24-hours, the fluorescent signal obtained from surface adhered PAO1-EGFP was measured. Percent reduction in fluorescence was calculated by comparing fluorescent signal from PAO1-EGFP grown in LB-media with the signal from wells that had DSHs (FIG. 29A). […] After 24 hours, the surface attached biofilms adhering to the bottom of the wells were stained with crystal-violet dye and the biofilm was quantified by measuring absorbance at 600 nm (OD600). […]

Method for Solubility in water: Stock solution of disaccharide hydrocarbons (DSHs). Stock solution (˜11.5 mM) of all synthesized and commercially available DSHs were prepared in autoclaved water and further sterilized by filtering through cellulose acetate syringe filter (0.2 μm pore size, GVS filter technology) into sterilized vials. The vials containing sterilized DSHs stocks were capped and stored at −20° C. and thawed prior to each use. Appropriate volume of sterile water was added to positive controls (no agents) in all assays to eliminate the effect of water. Stock solution of DβL (7), SFβL (15) and 2-ODαC (17) were prepared in sterile water and 200 proof EtOH in 90:10 ratio. For positive controls involving DβL (7), SFβL (15) and 2-ODαC (17) appropriate volumes of 90:10, H2O:EtOH was added.

With 12-hydroxy decyl β-maltose [12-HODeβM] the “Swarming motility of rhlA mutant” value [1] was “did not exhibit any significant activation of swarming”, the “Inhibition of PAO1-EGFP adhesion on polystyrene” value (PAO1-GFP; 85 μM, 2 h) was “about 7%” and the “Inhibition of PAO1 biofilm” value (PAO1 biofilm [2]) was “about 30%”. For the same compound, the “Inhibition of PAO1 biofilm” value (PAO1 biofilm [2]; listed as HODeβM) was 32%.
With `CC1=C(Br)/C(=C/Br)OC1=O` [BF8] the “Inhibition of PAO1 adhesion on polystyrene” value (PAO1-GFP; 100 μM) was “showed no inhibition; also recorded: does not inhibit the adhesion” and the “Inhibition of PAO1 biofilm” value (PAO1 biofilm [2]) was “about 35%”.
With `O=C(c1ccccc1)c1ccc(COCCCCCCCCCCO[C@@H]2O[C@H](CO)[C@@H](O[C@H]3O[C@H](CO)[C@@H](O)[C@H](O)[C@H]3O)[C@H](O)[C@H]2O)cc1` [BPDeβM, benzophenonyl decyl β-maltoside] the “Swarming motility of rhlA mutant” value [1] was “swarming motility with without well-defined tendrils”, the DC50 (24 h old PAO1 biofilm) was 31 µM and the pIC50 (PAO1 biofilm [2]) was 4.65.
For `CCCCCCCCCCCCO[C@@H]1O[C@H](CO)[C@@H](O[C@H]2O[C@H](CO)[C@@H](O)[C@H](O)[C@H]2O)[C@H](O)[C@H]1O` [DM, Dodecyl Maltoside], the “CFU number in the lung” value ([3]; 50 μl of 170 μM intratracheal 24 h after infection, sacrifice 24 h later) was “significantly decreased CFU number in the lung” and the “Lung inflammation (histology, H&E)” value ([3]; 50 μl of 170 μM intratracheal) was “improved the lung inflammation”.
In the case of `CCCCCCCCCCCC[N+](C)(C)C.[Cl-]` [DTAC, dodecyl trimethyl ammonium chloride, reference compound], the “Reactivation of swarming motility of rhlA mutant” value ([1]; concentration not given) was “did not promote or reactivate”, the “Anti-biofilm activity (dispersion)” value (24 h old PAO1 biofilm; concentration not given) was “did not show any anti-biofilm activities” and the “Anti-biofilm activity (inhibition)” value (PAO1 biofilm [2]; concentration not given) was “did not show any anti-biofilm activities”.
In the case of `CCCCCCCCCCCCO[C@@H]1O[C@@H](C)[C@H](O)[C@@H](O)[C@H]1O` [DαR (9), dodecyl-α-rhamnoside], the “Inhibition of PAO1 biofilm formation (surface attached)” value (PAO1 biofilm [4]; 160 μM, 24 h, LB media, listed as 8: DαR, 160 µM) was “poor anti-biofilm activity”, the “Anti-biofilm activity (biofilm inhibition)” value (PAO1 biofilm [4]; concentration not given) was “weak anti-biofilm activity” and the “Swarming motility of rhlA mutant” value [1] was “no apparent effect on rhlA”. The “Swarming motility of wild type PAO1” value (wild type PAO1; 85 μM in soft agar, 24 h) was “inhibited the swarming motility of wild type PAO1”, the “Effect on PAO1 swarming” value (wild type PAO1; concentration not given) was “PAO1 swarming inhibitors” and the “Adhesion inhibition of PAO1-EGFP on polystyrene” value (PAO1-EGFP) was 63%.
For `CC(C)CCCC(C)CCCC(C)CCO[C@@H]1O[C@H](CO)[C@@H](O[C@@H]2O[C@H](CO)[C@H](O)[C@H](O)[C@H]2O)[C@H](O)[C@H]1O` (stereo partly drawn) [SFβL (15), saturated famesyl-β-lactoside], the Solubility in water (Solubility in water) was “poor water-solubility” and the Solubility in water (Solubility in water; listed as 15: SFβL) was “poor solubility in water; also recorded: not soluble in either water or in water/EtOH mixture”.
In the case of benzyl dodecyl β-maltoside [BDβM], the “Swarming motility of rhlA mutant” value [1] was “swarming motility with without well-defined tendrils”, the DC50 (24 h old PAO1 biofilm) was 32 µM and the pIC50 (PAO1 biofilm [2]) was 4.56.

Reference: patent US11357786B2, “Synthetic disugar hydrocarbons as natural analogs to control microbial behaviors” (Syracuse University, priority 2014, dated 2022)
